Test: gradient 5% acetonitrile 3 min, to 50% in 2 min, to 85% in 15 min, held 3 min, 100 µL/min
Conditions: column: Zorbax Extend-C18 2.1 x 50 mm; eluents: water / acetonitrile, 0.1% formic acid
Method in brief: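 Mixtures of ~100 pure standards were chromatographed on a Zorbax Extend-C18 column (2.1 × 50 mm, 1.8 μm) at 100 μL/min using water and acetonitrile, each with 0.1% formic acid. Detection used a quadrupole time-of-flight mass spectrometer in positive and negative ionization mode, and data collection spanned 3 months. Retention time was obtained from adduct peaks picked computationally and each checked manually.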

Row | RP-LC retention time | Structure (SMILES)
1 | 720 s | CCCC(NC(=O)Cc1ccc(OC)c(Cl)c1)C(=O)Nc1nc2ccccc2[nH]1 (stereo unspecified)
2 | 969 s | Cc1noc(C)c1-c1ccc(S(=O)(=O)NCc2ccc(Cl)cc2)cc1
3 | 1150 s | Cc1ccc(-c2noc(C3CCCN3C(=O)C(NS(=O)(=O)c3ccc(C)cc3)C(C)C)n2)cc1 (stereo unspecified)
4 | 642 s | COc1cc(NC(=O)CCc2c(-c3ccc(Cl)cc3)nc3ccccn23)cc(OC)c1OC
5 | 784 s | Cc1cc(-c2nnc(C3CC3)o2)c(C)n1CC(=O)NCc1ccc(F)cc1
6 | 576 s | CCn1ncc(N2CCC(NC(=O)C(C)(C)C)CC2)cc1=O
7 | 648 s | Cc1cc(-c2nnc(NC(=O)Cc3ccc4c(c3)OCO4)o2)n(C)n1
8 | 776 s | O=C(CCSc1nnnn1-c1ccc(Cl)cc1)Nc1nccs1
9 | 1240 s | COc1cccc(CSc2ccc(-n3nc4c(c3C)CCC4)nn2)c1
10 | 916 s | Cc1ccc(CNC(=O)c2ccc3cnn(Cc4ccc(F)cc4)c3c2)o1
11 | 766 s | O=C(C1CCCN(c2ncnc3c2nc2n3CCCCC2)C1)N1CCCCCC1 (stereo unspecified)
12 | 1280 s | Cc1cc(C(=O)Nc2ccccc2Cl)nc2cc(-c3ccco3)nn12
13 | 629 s | COc1cc(C2CC(=O)c3c(C)nc(N4CCN(C)CC4)nc3C2)cc(OC)c1OC (stereo unspecified)
14 | 615 s | CCc1nnc2cc(N3CCN(C(=O)c4ccc(OC)cc4)CC3)cnn12
15 | 944 s | O=C1CC(c2noc(-c3cc(F)ccc3F)n2)CN1c1ccc(F)cc1 (stereo unspecified)
16 | 871 s | CN1C(=O)C2CCCCN2c2ccc(C(=O)NCCc3c[nH]c4ccccc34)cc21 (stereo unspecified)
17 | 730 s | CC(Cc1ccccc1)(NC(=O)CN)c1ccccc1 (stereo unspecified)
18 | 778 s | COc1ccc2nc(C(=O)NCc3cccc(F)c3)cn2n1
19 | 1050 s | Cc1nc(-c2cc(S(=O)(=O)Nc3ccc(F)cc3Cl)c(C)s2)cs1
20 | 817 s | Cc1ccc(CN2CCN(C3CCN(C(=O)Nc4ccc(C)c(F)c4)CC3)C(=O)C2=O)cc1
21 | 731 s | CCOC(=O)N1CCN(C(=O)Cn2ccc3ccccc32)CC1
22 | 781 s | COC(=O)c1ccc2c(=O)n(-c3cccc(Cl)c3)c(N3CCC(C(N)=O)CC3)nc2c1
23 | 1020 s | COc1cc(C(=O)Nc2sc3c(c2C(N)=O)CC(C)CC3)cc(OC)c1OC (stereo unspecified)

Row | RP-LC retention time | Structure (SMILES)
24 | 631 s | Cc1nn(-c2ccccc2)c(C)c1S(=O)(=O)N1CCC(C(=O)N2CCN(C)CC2)CC1
25 | 874 s | Cc1ccc2[nH]cc(CCNC(=O)NC3CCCCC3)c2c1
26 | 839 s | CCN(C(=O)Cc1c(C(=O)O)c(C)cn1CC)c1cccc(Cl)c1
27 | 1110 s | CSc1ccc(-c2noc(CN3C(=O)COc4ccccc43)n2)cc1
28 | 786 s | CCCNC(=O)CCc1nc2ccccc2n(CC(=O)NCc2ccc(C)cc2)c1=O
29 | 702 s | CCOC(=O)c1csc(NC(=O)c2ccn(CC)n2)n1
30 | 1310 s | COc1cccc(N2CCN(S(=O)(=O)c3cc(-c4nc(C(C)C)cs4)cs3)CC2)c1
31 | 691 s | COC(=O)c1ncn2c1C(=O)N(c1ccc(F)cc1)C(C)(C(=O)NCc1ccccc1)C2 (stereo unspecified)
32 | 622 s | CN(C)C(CNC(=O)C(=O)Nc1ccc(OC(F)(F)F)cc1)c1ccccc1Cl (stereo unspecified)
33 | 760 s | N#CC1(C(=O)Nc2ccc(F)c(F)c2)CC1
34 | 751 s | Cc1ccc(NC(=O)N2CCC(n3cnc4ccccc4c3=O)CC2)c(C)c1
35 | 944 s | CCc1cc(C(=O)N2CCCC2c2cccc(F)c2)no1 (stereo unspecified)
36 | 556 s | COCC1(O)CCOC2(CCN(Cc3ccc(C)cc3)CC2)C1 (stereo unspecified)
37 | 1280 s | O=C(Nc1nc(-c2ccccc2)cs1)c1ccc(COc2ccc(Cl)cc2Cl)o1
38 | 759 s | CC(C)NC(=O)c1ccc(Cn2c(SCC#N)nc3cc4c(cc3c2=O)OCO4)cc1
39 | 812 s | CC1CN(C(=O)CSc2cn(CC(=O)N3CCCCC3)c3ccccc23)CC(C)O1 (stereo unspecified)
40 | 996 s | CCCC(CCC)C(=O)NCCc1c[nH]c2ccc(C)cc12
41 | 775 s | COCc1nn(CC2CC2)c2c1CN(C(=O)c1ccc(C)s1)CC2
42 | 929 s | COC(=O)C1=CN(c2ccc(F)c(Cl)c2)c2ccc(F)cc2S1(=O)=O
43 | 892 s | CCOC(=O)c1c(C)[nH]c(C(=O)N2CCCC(C(=O)NC3CCCCCC3)C2)c1C (stereo unspecified)
44 | 647 s | COc1ccc(-c2nnc(CC(=O)N3CCOCC3)o2)cc1
45 | 715 s | CC1=C(C(=O)N2CCOCC2)C(c2cc(Br)ccc2F)C2=C(CC(C)(C)CC2=O)N1 (stereo unspecified)
46 | 1270 s | Cc1sc(NC(=O)Cc2csc(-c3ccccc3)n2)nc1-c1cccc(Cl)c1

Row | RP-LC retention time | Structure (SMILES)
47 | 601 s | O=C(CNC(=O)c1ccccn1)Nc1nc2ccccc2[nH]1
48 | 1070 s | Cc1ccc(-c2nnc(-c3nn(C)c4c3CN(S(=O)(=O)c3ccc(Cl)cc3)CC4)o2)cc1
49 | 856 s | CC1CCCN(c2ccc(-c3noc(CN4CCSCC4)n3)cn2)C1 (stereo unspecified)
50 | 748 s | O=C(Cn1c(=O)c2cc(C3CC3)nn2c2ncccc21)NCc1ccc(F)cc1
51 | 658 s | COC(=O)CNC(=O)C1COc2ccc(NC(=O)C(C)C)cc2C1 (stereo unspecified)
52 | 749 s | O=[N+]([O-])c1ccccc1S(=O)(=O)Nc1ccc(N2CCOCC2)cc1
53 | 850 s | Cc1nc(-n2c(C)ccc2C)sc1C(=O)NC1CC1
54 | 1110 s | Cc1cccc(Nc2c(-c3ccc(Cl)cc3)nc3cnccn23)c1C
55 | 731 s | CCc1nncn1C1CCN(S(=O)(=O)c2ccc(C)c(C)c2)CC1
56 | 869 s | COc1cccc(C(=O)NC2CCN(c3ccc(C)c(C)c3)C2=O)c1 (stereo unspecified)
57 | 771 s | COc1ccc2[nH]cc(CCN3CC(C(=O)Nc4cccc(C)c4C)CC3=O)c2c1 (stereo unspecified)
58 | 824 s | O=C(CN1CCN(Cc2ccc(F)cc2)C1=O)N1CCN(c2ccccc2)CC1
59 | 572 s | COCCCNC(=O)C1CCC(=O)N(c2cc(OC)c(OC)c(OC)c2)C1c1ccc(OC)cc1 (stereo unspecified)
60 | 815 s | COC(=O)c1nnn(-c2ccc(OC)cc2)c1C(=O)OC
61 | 1150 s | O=C(Nc1nc(-c2ccccc2)cs1)c1ccc(S(=O)(=O)N2CCCCC2)cc1
62 | 986 s | COc1cc(CNC(=O)C2CCCN(c3nccnc3Sc3ccccc3)C2)cc(OC)c1 (stereo unspecified)
63 | 614 s | Cc1ccc(C)c(-n2ncc3c(N4CCN(C)CC4)ncnc32)c1
64 | 1050 s | Cc1ccc(-n2c(N3CCCC(C(=O)Nc4ccc(F)c(F)c4)C3)nc3ccsc3c2=O)cc1 (stereo unspecified)
65 | 641 s | CCn1c(=O)c(SCC(=O)NCCN(C)Cc2ccccc2)nc2ccccc21
66 | 703 s | NC(=O)C1CCN(C(=O)c2cccc(NC(=O)c3nsc4ccccc34)c2)CC1
67 | 762 s | CCc1cccc(NS(=O)(=O)c2cc3n(c2)CCN(CC)C3=O)c1
68 | 871 s | CCc1ccc(CNC(=O)C2CCCN(c3ccc(=O)n(-c4ccc(OC)cc4)n3)C2)cc1 (stereo unspecified)
69 | 725 s | Cn1cc(CC(=O)NCc2cccc(Cl)c2)c2cccnc21

Row | RP-LC retention time | Structure (SMILES)
70 | 614 s | Nc1ccc2nc3ccc(=O)cc-3n(-c3ccccc3)c2c1
71 | 1300 s | O=C(CCCOc1ccc(Cl)cc1Cl)Nc1nc(-c2ccc(Cl)cc2)cs1
72 | 687 s | COc1cc(CCc2cc(NC(=O)c3ccc(N4C[C@@H](C)N[C@@H](C)C4)cc3)n[nH]2)cc(OC)c1
73 | 536 s | Cc1ccsc1CN1CCc2oc(C)c(C(=O)N3CCOCC3)c2C1
74 | 1110 s | Cc1ccc(-c2noc(CN3C(=O)COc4ccccc43)n2)cc1C
75 | 772 s | O=c1[nH]c2sc3c(c2c(=O)n1-c1ccccc1)CCCC3
76 | 789 s | Cc1ccc(S(=O)(=O)N2CCC(CCC(=O)NC3CC3)CC2)cc1
77 | 891 s | CS(=O)(=O)c1ccc(C(=O)Nc2ccc(Cl)c(-c3ccccn3)c2)c(Cl)c1
78 | 754 s | CN1CCc2c(n(CC(O)Cn3nnc4ccccc43)c3ccccc23)C1=O (stereo unspecified)
79 | 771 s | CCn1ccc2cc(S(=O)(=O)N3CCC(C(=O)NCC4CCCO4)CC3)ccc21 (stereo unspecified)
80 | 630 s | CCOC(=O)c1c(C)n(C)c2ccc(OCC(O)CN3CCOCC3)cc12 (stereo unspecified)
81 | 700 s | Cc1ccn2cc(-c3ccc(NC(=O)c4cc(Br)ccc4Cl)cc3)nc2n1
82 | 895 s | O=C(NCCc1cccs1)c1cccc2c1CCN2C(=O)Nc1ccccc1
83 | 1070 s | Cn1cccc1C(=O)C(=O)Nc1ccc(F)cc1Cl
84 | 1050 s | COc1ccc(Cl)cc1NC(=O)C1CCN(S(=O)(=O)c2cc(-c3noc(C)n3)cs2)CC1
85 | 559 s | Cc1noc(C)c1CC(=O)NCc1nnc2n1CCCC2
86 | 604 s | O=C(O)c1cnc(N2CCOCC2)nc1-c1ccccn1
87 | 681 s | CN1C(=O)c2cccn2CC1C(=O)Nc1ccccc1 (stereo unspecified)
88 | 662 s | O=C(Cn1c(=O)c2nncn2c2ncccc21)NCc1ccccc1Cl
89 | 564 s | COCCNC(=O)c1cccnc1N1CCNC(c2ccccc2)C1 (stereo unspecified)
90 | 610 s | Cc1cc(NC(C)C)n2c(nc3ccccc32)c1C#N
91 | 715 s | Cn1cnc2c(C(=O)NCC3CCCO3)nn(-c3ccc(Cl)cc3)c2c1=O (stereo unspecified)
